Test results reported in PubChem BioAssay AID2060624 (Molecular Pharmacology Branch, DTP, NCI, 2025).

Tested on: 217524-143-R1-J4-PDC spheroids with HUVEC/MSC, viability
Assay: Anticancer human tumor 217524-143-R1-J4-PDC patient-derived pancreatic carcinoma cell line growth inhibition [CLK]
Settings: for IC50: curve of first compound; for viability, T/C: stronger effect = lower value
In short: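 Multi-cell-type spheroids combined patient-derived tumor cells with HUVEC endothelial cells and human mesenchymal stem cells. Paired agents were dosed in half-log steps down from about clinical Cmax, or from 10 microM where Cmax was unknown.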

[1] = second compound 0.0316 µM, first compound 0.0316 µM
[2] = second compound 0.0316 µM, first compound 0.1 µM
[3] = second compound 0.0316 µM, first compound 0.316 µM
[4] = second compound 0.0316 µM, first compound 1 µM
[5] = second compound 0.0316 µM, first compound 3.16 µM
[6] = second compound 0.0316 µM, first compound 10 µM
[7] = second compound 0.1 µM, first compound 0.0316 µM
[8] = second compound 0.1 µM, first compound 0.1 µM
[9] = second compound 0.1 µM, first compound 0.316 µM
[10] = second compound 0.1 µM, first compound 1 µM
[11] = second compound 0.1 µM, first compound 3.16 µM
[12] = second compound 0.1 µM, first compound 10 µM
[13] = second compound 0.316 µM, first compound 0.0316 µM
[14] = second compound 0.316 µM, first compound 0.1 µM
[15] = second compound 0.316 µM, first compound 0.316 µM
[16] = second compound 0.316 µM, first compound 1 µM
[17] = second compound 0.316 µM, first compound 3.16 µM
[18] = second compound 0.316 µM, first compound 10 µM
[19] = second compound 1 µM, first compound 0.0316 µM
[20] = second compound 1 µM, first compound 0.1 µM
[21] = second compound 1 µM, first compound 0.316 µM
[22] = second compound 1 µM, first compound 1 µM
[23] = second compound 1 µM, first compound 3.16 µM
[24] = second compound 1 µM, first compound 10 µM
[25] = second compound 3.16 µM, first compound 0.0316 µM
[26] = second compound 3.16 µM, first compound 0.1 µM
[27] = second compound 3.16 µM, first compound 0.316 µM
[28] = second compound 3.16 µM, first compound 1 µM
[29] = second compound 3.16 µM, first compound 3.16 µM
[30] = second compound 3.16 µM, first compound 10 µM
[31] = second compound 10 µM, first compound 0.0316 µM
[32] = second compound 10 µM, first compound 0.1 µM
[33] = second compound 10 µM, first compound 0.316 µM
[34] = second compound 10 µM, first compound 1 µM
[35] = second compound 10 µM, first compound 3.16 µM
[36] = second compound 10 µM, first compound 10 µM
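Also: spheroids exposed to agents for seven days before reading.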
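For viability, T/C in this document: 100% = DMSO vehicle control viability.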

Compound: C=CC(=O)N1CCN(c2nc(=O)n(-c3c(C)ccnc3C(C)C)c3nc(-c4c(O)cccc4F)c(F)cc23)C(C)C1 (stereo unspecified) + CNC(=O)c1ccc(Nc2nc(OC3CCCC3)c3c(-c4ccc5nc(C)oc5c4)c[nH]c3n2)c(OC)c1
- IC50 (second compound 0.0316 µM): > 10000 nM
- IC50 (second compound 0.1 µM): < 31.6 nM
- IC50 (second compound 0.316 µM): < 31.6 nM
- IC50 (second compound 1 µM): < 31.6 nM
- IC50 (second compound 3.16 µM): < 31.6 nM
- IC50 (second compound 10 µM): < 31.6 nM
- viability, T/C [1]: 99.7%
- viability, T/C [2]: 96.5%
- viability, T/C [3]: 82.2%
- viability, T/C [4]: 102%
- viability, T/C [5]: 123%
- viability, T/C [6]: 118%
- viability, T/C [7]: 44.1%
- viability, T/C [8]: 47.4%
- viability, T/C [9]: 41.4%
- viability, T/C [10]: 49.9%
- viability, T/C [11]: 58.5%
- viability, T/C [12]: 55.8%
- viability, T/C [13]: 34.6%
- viability, T/C [14]: 31.3%
- viability, T/C [15]: 50.8%
- viability, T/C [16]: 41.4%
- viability, T/C [17]: 49%
- viability, T/C [18]: 43.4%
- viability, T/C [19]: 24.7%
- viability, T/C [20]: 27.6%
- viability, T/C [21]: 32.8%
- viability, T/C [22]: 39.2%
- viability, T/C [23]: 36.4%
- viability, T/C [24]: 30%
- viability, T/C [25]: 24.9%
- viability, T/C [26]: 29.8%
- viability, T/C [27]: 31%
- viability, T/C [28]: 30.2%
- viability, T/C [29]: 36.8%
- viability, T/C [30]: 27.9%
- viability, T/C [31]: 27.9%
- viability, T/C [32]: 27.9%
- viability, T/C [33]: 31.7%
- viability, T/C [34]: 31.9%
- viability, T/C [35]: 34.2%
- viability, T/C [36]: 29.1%

Compound: CCCS(=O)(=O)Nc1ccc(F)c(C(=O)c2c[nH]c3ncc(-c4ccc(Cl)cc4)cc23)c1F + CNC(=O)c1ccc(Nc2nc(OC3CCCC3)c3c(-c4ccc5nc(C)oc5c4)c[nH]c3n2)c(OC)c1
- IC50 (second compound 0.0316 µM): > 10000 nM
- IC50 (second compound 0.1 µM): < 31.6 nM
- IC50 (second compound 0.316 µM): < 31.6 nM
- IC50 (second compound 1 µM): < 31.6 nM
- IC50 (second compound 3.16 µM): < 31.6 nM
- IC50 (second compound 10 µM): < 31.6 nM
- viability, T/C [1]: 76.2%
- viability, T/C [2]: 83%
- viability, T/C [3]: 99.1%
- viability, T/C [4]: 130%
- viability, T/C [5]: 139%
- viability, T/C [6]: 57.1%
- viability, T/C [7]: 40.1%
- viability, T/C [8]: 49.2%
- viability, T/C [9]: 49.9%
- viability, T/C [10]: 67.3%
- viability, T/C [11]: 76.6%
- viability, T/C [12]: 40.1%
- viability, T/C [13]: 41.5%
- viability, T/C [14]: 38.8%
- viability, T/C [15]: 45.6%
- viability, T/C [16]: 58.1%
- viability, T/C [17]: 59.2%
- viability, T/C [18]: 31.2%
- viability, T/C [19]: 35.1%
- viability, T/C [20]: 35.1%
- viability, T/C [21]: 46.9%
- viability, T/C [22]: 45%
- viability, T/C [23]: 49.3%
- viability, T/C [24]: 24.1%
- viability, T/C [25]: 32.1%
- viability, T/C [26]: 31.6%
- viability, T/C [27]: 34.6%
- viability, T/C [28]: 47.6%
- viability, T/C [29]: 42.1%
- viability, T/C [30]: 17.6%
- viability, T/C [31]: 29.6%
- viability, T/C [32]: 26.5%
- viability, T/C [33]: 38.7%
- viability, T/C [34]: 34.9%
- viability, T/C [35]: 42%
- viability, T/C [36]: 18%

Compound: COC1C=CCC(C)C(C)S(=O)(=O)NC(=O)c2ccc3c(c2)N(CC2CCC21)CC1(CCCc2cc(Cl)ccc21)CO3 (stereo unspecified) + CNC(=O)c1ccc(Nc2nc(OC3CCCC3)c3c(-c4ccc5nc(C)oc5c4)c[nH]c3n2)c(OC)c1
- IC50 (second compound 0.0316 µM): 7690 nM
- IC50 (second compound 0.1 µM): < 31.6 nM
- IC50 (second compound 0.316 µM): < 31.6 nM
- IC50 (second compound 1 µM): < 31.6 nM
- IC50 (second compound 3.16 µM): < 31.6 nM
- IC50 (second compound 10 µM): < 31.6 nM
- viability, T/C [1]: 83.2%
- viability, T/C [2]: 91.3%
- viability, T/C [3]: 95.8%
- viability, T/C [4]: 114%
- viability, T/C [5]: 108%
- viability, T/C [6]: 35.6%
- viability, T/C [7]: 46.6%
- viability, T/C [8]: 43.9%
- viability, T/C [9]: 72.9%
- viability, T/C [10]: 75.3%
- viability, T/C [11]: 91.2%
- viability, T/C [12]: 33.1%
- viability, T/C [13]: 34.2%
- viability, T/C [14]: 38.8%
- viability, T/C [15]: 39.4%
- viability, T/C [16]: 29.6%
- viability, T/C [17]: 31.9%
- viability, T/C [18]: 33.7%
- viability, T/C [19]: 30.1%
- viability, T/C [20]: 29.3%
- viability, T/C [21]: 27.4%
- viability, T/C [22]: 22.1%
- viability, T/C [23]: 20.9%
- viability, T/C [24]: 24.2%
- viability, T/C [25]: 26.9%
- viability, T/C [26]: 25.1%
- viability, T/C [27]: 22.3%
- viability, T/C [28]: 20.6%
- viability, T/C [29]: 23.5%
- viability, T/C [30]: 23.9%
- viability, T/C [31]: 29.8%
- viability, T/C [32]: 21%
- viability, T/C [33]: 17.9%
- viability, T/C [34]: 18.5%
- viability, T/C [35]: 17.5%
- viability, T/C [36]: 22.3%
